Literature values as cited in patent US10016363B2, “Pre-spray emulsions and powders containing non-polar compounds” (VIRUN, INC., priority 2014, dated 2018).

Conditions: reported HLB value of surfactant
For sucrose dipalmitate, the H.L.B. is listed as 7.4.
For sucrose distearate, the H.L.B. is given as 3.
For sucrose monopalmitate, the H.L.B. is given as over 10.
